Results: patent US12371428B2 (Exelixis, Inc., priority 2019, dated 2025)

Columns and labels:
Format in all cases: cell-based
[1] = target: Mer (phospho-Mer, MERTK-transfected 293A cells) (Homo sapiens (Human), UniProt Q12866); experiment: Mer autophosphorylation ELISA in transient transfected 293A cells (Example H); conditions: cellular activity; Mer autophosphorylation ELISA in transient transfected 293A cells
Summary of the method: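 293A cells transiently transfected with human MERTK were treated 1 h in serum-free medium with an 8-point compound dilution (0.3% DMSO final). Lysates were assayed by phospho-Mer sandwich ELISA against a phospho-Mer standard; IC50 came from a 4-parameter logistic fit, normalised to DMSO (100%) and reference-inhibitor (0%) controls.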

[2] = target: KDR (phospho-KDR, VEGF165-stimulated HUVEC cells) (Homo sapiens (Human), UniProt P35968); experiment: KDR autophosphorylation ELISA in HUVEC cells (Example G); conditions: cellular activity; KDR autophosphorylation ELISA in HUVEC cells
Summary of the method: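 HUVEC cells, serum-starved 24 h, were treated 1 h with an 8-point compound dilution (0.3% DMSO) and then stimulated with 100 ng/mL VEGF165 for 5 min. Phospho-KDR in lysates was quantified by sandwich ELISA against a phospho-KDR standard. IC50 from a 4-parameter logistic fit, normalised between stimulated DMSO and unstimulated controls.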

[3] = target: Met (phospho-Met, HGF-stimulated PC-3 prostate cancer cells) (Homo sapiens (Human), UniProt P08581); experiment: Met autophosphorylation ELISA in PC-3 cells (Example F); conditions: cellular activity; Met autophosphorylation ELISA in PC-3 cells; read-out: c-Met IC50
Summary of the method: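 PC-3 cells, serum-starved 3 h, were treated with compounds (8-point dose curve, 0.3% DMSO final) for 1 h, then stimulated with 100 ng/mL recombinant human HGF for 10 min. Lysate phospho-Met (panTyr) was quantified by sandwich ELISA; IC50 from 4-parameter logistic fit.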

[4] = target: AXL (phospho-AXL, Gas6-stimulated A-172 glioblastoma cells) (Homo sapiens (Human), UniProt P30530); experiment: AXL autophosphorylation ELISA in A-172 cells (Example E); conditions: cellular activity; AXL autophosphorylation ELISA in A-172 cells; read-out: Axl IC50
Summary of the method: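 Phospho-AXL in lysates was quantified by ELISA, normalised to DMSO (100%) and reference inhibitor (0%) controls. IC50 by 4-parameter logistic fit.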

Chain of Mer (phospho-Mer, MERTK-transfected 293A cells) (Q12866 21-999): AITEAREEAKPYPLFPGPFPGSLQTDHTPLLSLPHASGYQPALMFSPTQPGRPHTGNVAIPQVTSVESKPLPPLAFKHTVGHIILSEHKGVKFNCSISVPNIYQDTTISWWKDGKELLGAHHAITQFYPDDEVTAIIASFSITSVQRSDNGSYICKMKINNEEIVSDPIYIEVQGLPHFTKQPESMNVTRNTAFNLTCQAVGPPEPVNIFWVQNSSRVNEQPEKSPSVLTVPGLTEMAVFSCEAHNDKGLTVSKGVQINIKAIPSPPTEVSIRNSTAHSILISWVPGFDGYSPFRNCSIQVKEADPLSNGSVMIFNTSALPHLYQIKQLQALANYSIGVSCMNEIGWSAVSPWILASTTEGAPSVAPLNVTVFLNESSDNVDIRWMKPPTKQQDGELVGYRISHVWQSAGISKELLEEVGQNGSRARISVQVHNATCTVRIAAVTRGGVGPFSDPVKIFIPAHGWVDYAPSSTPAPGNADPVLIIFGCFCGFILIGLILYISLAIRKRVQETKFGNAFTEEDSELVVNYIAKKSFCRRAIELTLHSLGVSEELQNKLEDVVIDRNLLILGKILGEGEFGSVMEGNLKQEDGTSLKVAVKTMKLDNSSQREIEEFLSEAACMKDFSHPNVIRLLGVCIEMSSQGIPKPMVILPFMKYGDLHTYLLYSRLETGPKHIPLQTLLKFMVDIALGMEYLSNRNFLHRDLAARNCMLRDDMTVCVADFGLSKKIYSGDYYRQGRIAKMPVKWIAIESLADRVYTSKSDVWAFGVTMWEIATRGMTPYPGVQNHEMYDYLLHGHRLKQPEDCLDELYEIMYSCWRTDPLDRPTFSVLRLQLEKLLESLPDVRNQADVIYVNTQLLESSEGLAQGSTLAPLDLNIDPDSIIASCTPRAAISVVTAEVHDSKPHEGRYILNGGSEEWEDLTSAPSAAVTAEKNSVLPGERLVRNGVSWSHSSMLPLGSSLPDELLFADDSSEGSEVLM
Chain of Met (phospho-Met, HGF-stimulated PC-3 prostate cancer cells) (P08581 25-1390): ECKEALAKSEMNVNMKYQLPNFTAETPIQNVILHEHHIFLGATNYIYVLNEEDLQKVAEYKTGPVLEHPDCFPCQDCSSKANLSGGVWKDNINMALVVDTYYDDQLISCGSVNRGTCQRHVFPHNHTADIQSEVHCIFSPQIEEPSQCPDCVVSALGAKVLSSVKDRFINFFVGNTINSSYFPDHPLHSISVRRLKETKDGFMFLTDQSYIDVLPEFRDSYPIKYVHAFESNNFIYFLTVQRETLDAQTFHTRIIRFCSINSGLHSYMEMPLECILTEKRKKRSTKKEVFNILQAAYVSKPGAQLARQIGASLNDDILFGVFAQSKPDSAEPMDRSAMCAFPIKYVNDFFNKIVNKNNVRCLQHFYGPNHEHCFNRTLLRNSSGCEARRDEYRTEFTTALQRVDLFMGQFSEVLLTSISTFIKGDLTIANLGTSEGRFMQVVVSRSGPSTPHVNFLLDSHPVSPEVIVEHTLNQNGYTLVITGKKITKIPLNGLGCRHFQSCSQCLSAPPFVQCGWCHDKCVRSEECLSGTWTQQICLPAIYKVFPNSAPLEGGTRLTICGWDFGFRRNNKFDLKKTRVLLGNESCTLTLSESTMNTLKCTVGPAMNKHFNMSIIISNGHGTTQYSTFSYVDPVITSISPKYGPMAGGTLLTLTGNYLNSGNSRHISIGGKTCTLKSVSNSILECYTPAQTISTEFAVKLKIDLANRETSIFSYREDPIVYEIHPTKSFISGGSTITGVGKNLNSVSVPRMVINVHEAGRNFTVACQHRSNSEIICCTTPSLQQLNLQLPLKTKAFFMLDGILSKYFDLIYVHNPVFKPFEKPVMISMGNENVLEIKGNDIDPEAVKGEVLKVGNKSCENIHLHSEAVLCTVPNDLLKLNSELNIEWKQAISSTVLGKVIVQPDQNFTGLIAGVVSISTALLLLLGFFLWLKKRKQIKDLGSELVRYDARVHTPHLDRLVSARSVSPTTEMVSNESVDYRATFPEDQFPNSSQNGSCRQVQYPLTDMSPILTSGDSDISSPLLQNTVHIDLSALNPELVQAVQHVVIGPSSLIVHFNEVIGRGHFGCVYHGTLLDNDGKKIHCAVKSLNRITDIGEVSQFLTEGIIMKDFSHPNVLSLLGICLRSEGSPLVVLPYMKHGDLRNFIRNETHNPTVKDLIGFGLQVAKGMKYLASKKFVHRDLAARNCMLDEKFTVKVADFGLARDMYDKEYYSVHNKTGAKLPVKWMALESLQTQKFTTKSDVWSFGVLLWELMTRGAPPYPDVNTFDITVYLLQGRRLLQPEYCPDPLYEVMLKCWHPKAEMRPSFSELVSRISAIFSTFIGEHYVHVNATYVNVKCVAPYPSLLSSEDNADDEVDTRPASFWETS
Chain of KDR (phospho-KDR, VEGF165-stimulated HUVEC cells) (P35968 20-1356): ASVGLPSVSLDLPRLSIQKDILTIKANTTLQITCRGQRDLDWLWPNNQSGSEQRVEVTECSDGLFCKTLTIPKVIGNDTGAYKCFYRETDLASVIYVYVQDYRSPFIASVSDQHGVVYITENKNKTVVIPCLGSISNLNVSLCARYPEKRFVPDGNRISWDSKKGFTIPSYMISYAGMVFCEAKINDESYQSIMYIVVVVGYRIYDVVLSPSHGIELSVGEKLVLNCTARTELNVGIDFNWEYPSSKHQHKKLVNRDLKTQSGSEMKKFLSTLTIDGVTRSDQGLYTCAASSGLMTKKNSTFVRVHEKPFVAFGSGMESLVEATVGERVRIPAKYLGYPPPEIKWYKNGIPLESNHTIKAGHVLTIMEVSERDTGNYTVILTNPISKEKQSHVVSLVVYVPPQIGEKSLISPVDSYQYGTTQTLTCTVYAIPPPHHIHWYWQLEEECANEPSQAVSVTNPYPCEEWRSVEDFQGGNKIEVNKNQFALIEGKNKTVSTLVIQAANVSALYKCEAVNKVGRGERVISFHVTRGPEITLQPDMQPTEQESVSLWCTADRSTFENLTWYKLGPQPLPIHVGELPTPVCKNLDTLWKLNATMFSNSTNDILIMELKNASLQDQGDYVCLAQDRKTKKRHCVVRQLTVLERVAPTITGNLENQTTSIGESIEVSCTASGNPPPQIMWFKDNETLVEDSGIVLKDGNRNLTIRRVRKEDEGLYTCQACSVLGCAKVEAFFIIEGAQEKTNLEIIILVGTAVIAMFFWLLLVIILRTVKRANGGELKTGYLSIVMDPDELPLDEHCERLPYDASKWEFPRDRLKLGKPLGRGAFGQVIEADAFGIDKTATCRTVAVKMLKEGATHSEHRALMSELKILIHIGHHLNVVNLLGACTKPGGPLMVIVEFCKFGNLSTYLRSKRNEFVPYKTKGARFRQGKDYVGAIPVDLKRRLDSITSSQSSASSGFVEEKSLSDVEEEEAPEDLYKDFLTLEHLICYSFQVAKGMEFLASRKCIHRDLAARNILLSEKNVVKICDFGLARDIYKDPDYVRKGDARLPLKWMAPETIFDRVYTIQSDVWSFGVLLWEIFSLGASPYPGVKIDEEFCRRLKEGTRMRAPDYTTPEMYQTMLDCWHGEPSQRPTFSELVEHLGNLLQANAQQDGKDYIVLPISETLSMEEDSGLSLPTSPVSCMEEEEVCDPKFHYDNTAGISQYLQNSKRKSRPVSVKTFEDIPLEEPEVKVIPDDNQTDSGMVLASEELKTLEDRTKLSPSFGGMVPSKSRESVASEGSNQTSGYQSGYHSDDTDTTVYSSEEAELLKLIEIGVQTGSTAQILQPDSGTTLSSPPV
Chain of AXL (phospho-AXL, Gas6-stimulated A-172 glioblastoma cells) (P30530 26-894): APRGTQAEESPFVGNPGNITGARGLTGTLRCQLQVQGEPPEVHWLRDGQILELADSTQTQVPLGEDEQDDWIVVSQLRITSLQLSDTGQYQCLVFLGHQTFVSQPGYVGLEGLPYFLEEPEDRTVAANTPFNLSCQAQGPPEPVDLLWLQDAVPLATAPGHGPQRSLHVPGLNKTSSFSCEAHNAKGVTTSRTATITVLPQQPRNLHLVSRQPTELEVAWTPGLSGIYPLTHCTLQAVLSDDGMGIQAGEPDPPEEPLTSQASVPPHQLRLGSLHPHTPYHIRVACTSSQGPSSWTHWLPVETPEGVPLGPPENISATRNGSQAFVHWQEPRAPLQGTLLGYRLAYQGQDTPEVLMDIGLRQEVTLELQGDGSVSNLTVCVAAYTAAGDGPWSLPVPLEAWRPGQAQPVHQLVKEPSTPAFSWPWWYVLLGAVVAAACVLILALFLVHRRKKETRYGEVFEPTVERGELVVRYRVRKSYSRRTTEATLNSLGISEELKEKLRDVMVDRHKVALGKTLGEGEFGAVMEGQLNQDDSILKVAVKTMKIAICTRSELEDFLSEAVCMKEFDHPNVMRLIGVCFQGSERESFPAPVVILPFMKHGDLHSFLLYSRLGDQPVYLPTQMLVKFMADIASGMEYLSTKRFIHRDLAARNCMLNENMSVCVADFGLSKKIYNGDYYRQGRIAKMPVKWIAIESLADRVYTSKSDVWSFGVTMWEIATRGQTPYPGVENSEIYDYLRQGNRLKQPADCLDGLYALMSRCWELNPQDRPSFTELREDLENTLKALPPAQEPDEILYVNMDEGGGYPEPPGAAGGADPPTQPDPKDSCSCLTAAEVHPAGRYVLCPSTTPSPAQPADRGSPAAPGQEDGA

IC50 [1] [nM] | IC50 [2] [nM] | IC50 [3] [nM] | IC50 [4] [nM] | Structure (SMILES)
< 100 | < 100 | < 100 | < 100 | COc1cc2nccc(Oc3ccc(NC(=O)c4cnc(C)c(-c5ccc(F)cc5F)c4O)cc3F)c2nc1OC [Compound 395, 5-(2,4-difluorophenyl)-N-[4-[(6,7-dimethoxy-1,5-naphthyridin-4-yl)oxy]-3-fluorophenyl]-4-hydroxy-6-methylpyridine-3-carboxamide]
< 100 | < 100 | < 100 | < 100 | Cc1cc2nccc(Oc3ccc(NC(=O)c4c(C)nc(C)c(-c5ccc(F)cc5)c4O)cc3F)c2nc1F [Compound 445, N-[3-fluoro-4-[(6-fluoro-7-methyl-1,5-naphthyridin-4-yl)oxy]phenyl]-5-(4-fluorophenyl)-4-hydroxy-2,6-dimethylpyridine-3-carboxamide]
< 100 | < 100 | < 100 | < 100 | COCc1nc(C)c(-c2ccc(F)cc2)c(O)c1C(=O)Nc1ccc(Oc2ccnc3cc(C)c(F)nc23)c(F)c1 [Compound 446, N-[3-fluoro-4-[(6-fluoro-7-methyl-1,5-naphthyridin-4-yl)oxy]phenyl]-5-(4-fluorophenyl)-4-hydroxy-2-(methoxymethyl)-6-methylpyridine-3-carboxamide]
< 100 | < 100 | < 100 | < 100 | C=C(C)c1cnc2c(Oc3ccc(NC(=O)c4c(C)nc(C)c(-c5ccc(F)cc5C)c4O)cc3F)ccnc2c1 [Compound 461, 5-(4-fluoro-2-methylphenyl)-N-[3-fluoro-4-[(7-prop-1-en-2-yl-1,5-naphthyridin-4-yl)oxy]phenyl]-4-hydroxy-2,6-dimethylpyridine-3-carboxamide]
< 100 | < 100 | < 100 | < 100 | C=C(C)c1cnc2c(Oc3ccc(NC(=O)c4n[nH]c(C)c(-c5ccc(F)cc5C)c4=O)cc3F)ccnc2c1 [Compound 463, 5-(4-fluoro-2-methylphenyl)-N-[3-fluoro-4-[(7-prop-1-en-2-yl-1,5-naphthyridin-4-yl)oxy]phenyl]-6-methyl-4-oxo-1H-pyridazine-3-carboxamide]
< 100 | < 100 | < 100 | < 100 | C=C(C)c1cnc2c(Oc3ccc(NC(=O)c4n[nH]c(C)c(-c5ccc(F)cc5)c4=O)cc3F)ccnc2c1 [Compound 464, 5-(4-fluorophenyl)-N-[3-fluoro-4-[(7-prop-1-en-2-yl-1,5-naphthyridin-4-yl)oxy]phenyl]-6-methyl-4-oxo-1H-pyridazine-3-carboxamide]
< 100 | 100 to 300 | < 100 | < 100 | C=C(C)c1cnc2c(Oc3ccc(NC(=O)c4cnc(C)n(-c5ccc(F)cc5)c4=O)cc3F)ccnc2c1 [Compound 465, 1-(4-fluorophenyl)-N-[3-fluoro-4-[(7-prop-1-en-2-yl-1,5-naphthyridin-4-yl)oxy]phenyl]-2-methyl-6-oxopyrimidine-5-carboxamide]
< 100 | < 100 | < 100 | < 100 | C=C(C)c1cnc2c(Oc3ccc(NC(=O)c4c(C)nc(C)n(-c5ccc(F)cc5)c4=O)cc3F)ccnc2c1 [Compound 466, 1-(4-fluorophenyl)-N-[3-fluoro-4-[(7-prop-1-en-2-yl-1,5-naphthyridin-4-yl)oxy]phenyl]-2,4-dimethyl-6-oxopyrimidine-5-carboxamide]
< 100 | < 100 | < 100 | < 100 | C=C(C)c1cnc2c(Oc3ccc(NC(=O)c4c(C)nc(C)n(-c5ccc(F)cc5)c4=O)cc3)ccnc2c1 [Compound 467, 1-(4-fluorophenyl)-2,4-dimethyl-6-oxo-N-[4-[(7-prop-1-en-2-yl-1,5-naphthyridin-4-yl)oxy]phenyl]pyrimidine-5-carboxamide]
< 100 | < 100 | < 100 | < 100 | COc1nc2c(Oc3ccc(NC(=O)c4c(C)nc(C)n(-c5ccc(F)cc5)c4=O)cc3F)ccnc2cc1C [Compound 468, N-[3-fluoro-4-[(6-methoxy-7-methyl-1,5-naphthyridin-4-yl)oxy]phenyl]-1-(4-fluorophenyl)-2,4-dimethyl-6-oxopyrimidine-5-carboxamide]
< 100 | < 100 | < 100 | < 100 | COCc1nc(C)c(-c2ccc(F)cc2)c(O)c1C(=O)Nc1ccc(Oc2ccnc3cc(C)c(OC)nc23)c(F)c1 [Compound 469, N-[3-fluoro-4-[(6-methoxy-7-methyl-1,5-naphthyridin-4-yl)oxy]phenyl]-5-(4-fluorophenyl)-4-hydroxy-2-(methoxymethyl)-6-methylpyridine-3-carboxamide]
< 100 | < 100 | < 100 | < 100 | COCc1nc(C)c(-c2ccc(F)cc2C)c(O)c1C(=O)Nc1ccc(Oc2ccnc3cc(C)c(OC)nc23)c(F)c1 [Compound 470, N-[3-fluoro-4-[(6-methoxy-7-methyl-1,5-naphthyridin-4-yl)oxy]phenyl]-5-(4-fluoro-2-methylphenyl)-4-hydroxy-2-(methoxymethyl)-6-methylpyridine-3-carboxamide]

More lines, now with the values behind:

Structure (SMILES) | IC50 [1] [nM] | IC50 [2] [nM] | IC50 [3] [nM] | IC50 [4] [nM]
COCc1ccc(C(=O)Nc2ccc(Oc3ccnc4cc(OC)c(OC)nc34)c(F)c2)c(=O)n1-c1ccc(F)cc1 [Compound 358, N-[4-[(6,7-dimethoxy-1,5-naphthyridin-4-yl)oxy]-3-fluorophenyl]-1-(4-fluorophenyl)-6-(methoxymethyl)-2-oxopyridine-3-carboxamide] | < 100 | < 100 | < 100 | < 100
COc1cc2nccc(Oc3ccc(NC(=O)c4cc(C(C)=O)cn(-c5ccc(F)cc5)c4=O)cc3)c2nc1OC [Compound 359, 5-acetyl-N-[4-[(6,7-dimethoxy-1,5-naphthyridin-4-yl)oxy]phenyl]-1-(4-fluorophenyl)-2-oxopyridine-3-carboxamide] | < 100 | > 300 | < 100 | < 100
COc1cc2nccc(Oc3ccc(NC(=O)c4c5c(cn(-c6ccc(F)cc6)c4=O)C(=O)CCC5)cc3)c2nc1OC [Compound 360, N-[4-[(6,7-dimethoxy-1,5-naphthyridin-4-yl)oxy]phenyl]-2-(4-fluorophenyl)-3,8-dioxo-6,7-dihydro-5H-isoquinoline-4-carboxamide] | < 100 | > 300 | 100 to 300 | < 100
COc1cc2nccc(Oc3ccc(NC(=O)c4cccn(-c5ccc(F)cc5)c4=O)cc3)c2nc1OC [Compound 361, N-[4-[(6,7-dimethoxy-1,5-naphthyridin-4-yl)oxy]phenyl]-1-(4-fluorophenyl)-2-oxopyridine-3-carboxamide] | < 100 | < 100 | < 100 | < 100
COc1cc2nccc(Oc3ccc(NC(=O)c4cn5c(c(-c6ccc(F)cc6)c4=O)CCC5)cc3F)c2nc1OC [Compound 362, N-[4-[(6,7-dimethoxy-1,5-naphthyridin-4-yl)oxy]-3-fluorophenyl]-8-(4-fluorophenyl)-7-oxo-2,3-dihydro-1H-indolizine-6-carboxamide] | < 100 | < 100 | < 100 | < 100
COc1cc2nccc(Oc3ccc(NC(=O)c4cn5c(c(-c6ccc(F)cc6)c4=O)CCCC5)cc3F)c2nc1OC [Compound 363, N-[4-[(6,7-dimethoxy-1,5-naphthyridin-4-yl)oxy]-3-fluorophenyl]-1-(4-fluorophenyl)-2-oxo-6,7,8,9-tetrahydroquinolizine-3-carboxamide] | < 100 | < 100 | < 100 | < 100
CNc1nccc2c(Oc3ccc(NC(=O)c4cnc(C)c(-c5ccc(F)cc5)c4O)cc3)ccnc12 [Compound 387, 5-(4-fluorophenyl)-4-hydroxy-6-methyl-N-[4-[[8-(methylamino)-1,7-naphthyridin-4-yl]oxy]phenyl]pyridine-3-carboxamide] | < 100 | < 100 | < 100 | < 100
COc1cc2nccc(Oc3ccc(NC(=O)c4cn(C)c(C)c(-c5ccc(F)cc5F)c4=O)cc3)c2nc1OC [Compound 396, 5-(2,4-difluorophenyl)-N-[4-[(6,7-dimethoxy-1,5-naphthyridin-4-yl)oxy]phenyl]-1,6-dimethyl-4-oxopyridine-3-carboxamide] | < 100 | < 100 | < 100 | < 100
C=C(C)c1cnc2c(Oc3ccc(NC(=O)c4cnc(C)n(-c5ccc(F)cc5)c4=O)cc3)ccnc2c1 [Compound 462, 1-(4-fluorophenyl)-2-methyl-6-oxo-N-[4-[(7-prop-1-en-2-yl-1,5-naphthyridin-4-yl)oxy]phenyl]pyrimidine-5-carboxamide] | < 100 | < 100 | < 100 | < 100
